Where two headings read alike, the source gives them in different places.
Experiments:
rainbow trout [1] = settings: rainbow trout fed two months; feed with 80 ppm astaxanthin, alone or with 160 ppm proantocyanidin (0.1% KPA-F); cited from earlier work
rainbow trout [2] = settings: oral via feed; cited from earlier work
salmon (S. salar) [3] = assay: Feeding test with ferulic acid in astaxanthin feed, retention of astaxanthin in fish muscle (Example 2); type: in vivo, Salmo salar
Description: The test was carried out with salmon (S. salar) from May 4th to August 20th. The test was carried out in vessels having a diameter of 1 metre. The vessels were filled with seawater and the water temperature varied between 8.3 and 11.8° C. in the period. There were 30 fish in each vessel having a mean weight of 0.2 kg at the start. The control group consisted of two vessels per diet, while the test group consisted of one vessel at medium inclusion of ferulic acid and two vessels per diet at low inclusion of ferulic acid.
The feed had the following main component composition: 44.5% protein; 28.2% fat; 7.6% water and 7.2% ash.
The test feed had the same composition as shown in table 2 and had in addition added ferulic acid as dry powder in meal mix before extrusion. Ferulic acid was added at two levels: low and medium, where the levels are defined as in example 1.
Each feed was formulated with two levels of astaxanthin, 20 and 40 mg/kg.
At the termination of the test the fish weighed 0.7 kg as an average. […] The fish were filleted and the fillet analysed for astaxanthin. Thirty fish per vessel were analysed individually with NIR.

sea bream = settings: cited from earlier work
salmon (S. salar) [4] = assay: Feeding test with gallic acid in astaxanthin feed, retention of astaxanthin in fish muscle (Example 1); type: in vivo, Salmo salar; settings: for retention of astaxanthin in fish muscle: 5.5 months
Description: The test was carried out on salmon (S. salar) over a 5.5-month period between November 11 and May 5. The test was carried out in vessels having a diameter of 1 metre. The vessels were filled with seawater and the water temperature varied between 8 and 12° C. in the period. There were 34-35 fish in each vessel. Mean weight at start was 118 g. The control group consisted of three vessels, while each test group consisted of one vessel.
The feeds had the following main component composition: 43.5% protein; 27.7% fat; 7.8% water and 8.0% ash.
There was produced feed having three different levels of astaxanthin, 15, 30 and 45 mg astaxanthin/kg respectively, both of the control feeds and the test feeds, by that different amounts of Carophyll Pink were added to the meal mixture before extrusion.
Adding gallic acid into the meal mix to the same recipe as the control feeds provided the test feeds. Gallic acid was added in four levels to the test feeds, low, medium, high and very high, respectively. Low level corresponds to an inclusion level of between 10 and 75 ppm, represented in the examples with an inclusion level of 15 ppm, medium level corresponds to an inclusion level of between 76 and 750 ppm, represented in the examples with an inclusion level of 400 ppm, high level corresponds to an inclusion level of between 751 and 1500 ppm, represented in the example with an inclusion level of 1200 ppm, and very high level corresponds to an inclusion level of over 1500 ppm, represented in the example with an inclusion level of 3600 ppm.
At the termination of the test the fish weighed in average 557 g. SGR was between 0.84%/d and 0.89%/d. The fish were filleted and the fillets were analysed for chemical astaxanthin in duplicates of pooled samples of fillets. Astaxanthin was analysed with HPLC according to a method developed by Roche with modifications.

## CC1=C(/C=C/C(C)=C/C=C/C(C)=C/C=C/C=C(C)/C=C/C=C(C)/C=C/C2=C(C)C(=O)C(O)CC2(C)C)C(C)(C)CC(O)C1=O (stereo not drawn) [astaxanthin, 3,3′-dihydroxy β,β-carotene-4,4′-dion]
Rainbow trout [1]
  chemical content of astaxanthin in the muscle at the end of the experiment: 6.57 ppm
Rainbow trout [2]
  share of added astaxanthin in the feed deposited in the fish meat: up to 15%

## COc1cc(C=CC(=O)O)ccc1O [ferulic acid, 3-(4-hydroxy-3-metoxyphenol)prop-2-enoic acid]
Salmon (S. salar) [3]; low level of ferulic acid (15 ppm), feed contained less than 20 ppm of astaxanthin
  effect on the retention of astaxanthin: favourable effect on the retention of astaxanthin
Salmon (S. salar) [3]; medium level of ferulic acid (400 ppm), feed contained more than 30 ppm of astaxanthin
  effect on the retention of astaxanthin: favourable effect on the retention of astaxanthin
Sea bream; 1000 ppm ferulic acid
  increase in the level of astaxanthin in fish skin: mild increase
Sea bream; only 100 ppm ferulic acid
  increase in the level of astaxanthin in fish skin: no increase

## O=C(O)c1cc(O)c(O)c(O)c1 [gallic acid, 3,4,5-hydroxybenzoic acid]
Salmon (S. salar) [4]; astaxanthin content in the feeds approx. 40 ppm
  retention of astaxanthin versus control: little difference in the retention
Salmon (S. salar) [4]; high inclusion levels of gallic acid in feed (751-1500 ppm, represented by 1200 ppm)
  retention of astaxanthin in fish muscle: hamper the retention of astaxanthin
Salmon (S. salar) [4]; lowest inclusion level of gallic acid (15 ppm) compared with medium level (400 ppm)
  effect on the retention of astaxanthin: equally good effect on the retention of astaxanthin as a medium level
Salmon (S. salar) [4]; very high level of gallic acid in feed (over 1500 ppm, represented by 3600 ppm)
  retention of astaxanthin in fish muscle: worse retention than at the other tested levels

From patent US20120114823A1, “Feed Additive For Improved Pigment Retention” (TROUW INTERNATIONAL B.V., priority 2009, published 2012)
